Test results published in publication PMC3947464 (ChemMedChem, 2013).

What was measured:
U937 cell line [1] = experiment: Western blot of c-Raf, p-Erk, Erk, p-Akt, Akt in U937; assay type: cell-based, Human; details: U937, 1 µM, 24h
HL60 cells = experiment: MTT anti-proliferation assay, HL60; assay type: cell-based; details: Homo sapiens, HL-60, 48 h, read-out: IC50 tumor cell growth inhibition HL60
U937 cell line [2] = experiment: Western blot of acetylated histone H3, H4, p21 and acetylated tubulin in U937; assay type: cell-based, Human; details: U937, 1 µM; for cell permeability and intracellular HDAC inhibition: 6h and 24h, western blot; for acetylated tubulin level, 24h: after 24h
U937 cells = experiment: MTT anti-proliferation assay, U937; assay type: cell-based; details: Homo sapiens, U-937, 48 h, read-out: IC50 tumor cell growth inhibition U937
K562 cells = experiment: MTT anti-proliferation assay, K562; assay type: cell-based; details: Homo sapiens, K562, 48 h, read-out: IC50 tumor cell growth inhibition K562
MCF7 cells = experiment: MTT anti-proliferation assay, MCF7; assay type: cell-based; details: Homo sapiens, MCF7, 48 h, read-out: IC50 tumor cell growth inhibition MCF7
PC3 cells = experiment: MTT anti-proliferation assay, PC3; assay type: cell-based; details: Homo sapiens, PC-3, 48 h, read-out: IC50 tumor cell growth inhibition PC3
U937 xenograft = experiment: In vivo antitumor assay against U937 xenograft; parameters: species or system athymic nude mice; details: 100 mg/kg/d intragastric, 16 days; for mean weight of tumors: negative control 2.66 g
[3] = Body weight and organ toxicity in the U937 xenograft study; assay type: in vivo; details: 100 mg/kg/d intragastric, measured every two days
Water solubility = assay type: physicochemical; details: compared among the derived molecules

O=C(NO)c1ccc(NC(=O)[C@@H](NC(=O)c2ccc3ccccc3c2)c2ccccc2)cc1 [Compound D3, (S)-N-(2-((4-(hydroxycarbamoyl)phenyl)amino)-2-oxo-1-phenylethyl)-2-naphthamide]
p-Akt level (U937 cell line [1]): significantly decreased | IC50 (HL60 cells): 3150 ± 130 nM | cell permeability and intracellular HDAC inhibition (U937 cell line [2]): cell permeable and can inhibit intracellular and even nuclear HDACs | acetylated tubulin level, 24h (U937 cell line [2]): still significant | IC50 (U937 cells): 1320 ± 70 nM | IC50 (K562 cells): 1190 ± 40 nM | IC50 (MCF7 cells): 2920 ± 150 nM | IC50 (PC3 cells): 3770 ± 270 nM

O=C(NO)c1ccc(NC(=O)[C@@H](NC(=O)c2ccc(F)cc2)c2ccccc2)cc1 [Compound D4, (S)-4-fluoro-N-(2-((4-(hydroxycarbamoyl)phenyl)amino)-2-oxo-1-phenylethyl)benzamide]
IC50 (HL60 cells): 4550 ± 210 nM | IC50 (U937 cells): 1640 ± 80 nM | IC50 (K562 cells): 1590 ± 60 nM | IC50 (MCF7 cells): 2040 ± 170 nM | IC50 (PC3 cells): 5880 ± 360 nM

O=C(NO)c1ccc(NC(=O)[C@@H](NS(=O)(=O)c2cccc3ccccc23)c2ccccc2)cc1 [Compound D5, (S)-N-hydroxy-4-(2-(naphthalene-1-sulfonamido)-2-phenylacetamido)benzamide]
IC50 (HL60 cells): 2880 ± 160 nM | cell permeability and intracellular HDAC inhibition (U937 cell line [2]): cell permeable and can inhibit intracellular and even nuclear HDACs | acetylated tubulin level, 24h (U937 cell line [2]): still significant | IC50 (U937 cells): 1630 ± 90 nM | IC50 (K562 cells): 930 ± 20 nM | IC50 (MCF7 cells): 8660 ± 730 nM | IC50 (PC3 cells): 10100 ± 570 nM

O=C(NO)c1ccc(NC(=O)[C@@H](NC(=O)c2ccccc2)c2ccccc2)cc1 [Compound D7, (S)-4-(2-benzamido-2-phenylacetamido)-N-hydroxybenzamide]
IC50 (HL60 cells): 2020 ± 150 nM | IC50 (U937 cells): 1770 ± 60 nM | IC50 (K562 cells): 1470 ± 70 nM | IC50 (MCF7 cells): 10800 ± 930 nM | IC50 (PC3 cells): 5670 ± 350 nM

COc1ccccc1C(=O)N[C@H](C(=O)Nc1ccc(C(=O)NO)cc1)c1ccccc1 [Compound D11, (S)-N-(2-((4-(hydroxycarbamoyl)phenyl)amino)-2-oxo-1-phenylethyl)-2-methoxybenzamide]
IC50 (HL60 cells): 780 ± 20 nM | IC50 (U937 cells): 1710 ± 30 nM | IC50 (K562 cells): 3160 ± 110 nM | IC50 (MCF7 cells): 8230 ± 320 nM | IC50 (PC3 cells): 20500 ± 1730 nM

COc1ccc(C(=O)N[C@H](C(=O)Nc2ccc(C(=O)NO)cc2)c2ccccc2)cc1 [Compound D12, (S)-N-hydroxy-4-(2-(4-methoxybenzamido)-2-phenylacetamido)benzamide]
IC50 (HL60 cells): 1800 ± 90 nM | IC50 (U937 cells): 1550 ± 40 nM | IC50 (K562 cells): 1930 ± 120 nM | IC50 (MCF7 cells): 6280 ± 330 nM | IC50 (PC3 cells): 3000 ± 150 nM

O=C(NO)c1ccc(NC(=O)[C@@H](NC(=O)c2cccc(Br)c2)c2ccccc2)cc1 [Compound D13, (S)-3-bromo-N-(2-((4-(hydroxycarbamoyl)phenyl)amino)-2-oxo-1-phenylethyl)benzamide]
IC50 (HL60 cells): 1530 ± 40 nM | cell permeability and intracellular HDAC inhibition (U937 cell line [2]): cell permeable and can inhibit intracellular and even nuclear HDACs | acetylated tubulin level, 24h (U937 cell line [2]): still significant | IC50 (U937 cells): 1390 ± 30 nM | IC50 (K562 cells): 1580 ± 60 nM | IC50 (MCF7 cells): 9710 ± 440 nM | IC50 (PC3 cells): 31600 ± 2330 nM

CN(C)c1cccc2c(S(=O)(=O)N[C@H](C(=O)Nc3ccc(C(=O)NO)cc3)c3ccccc3)cccc12 [Compound D17, (S)-4-(2-(5-(dimethylamino)naphthalene-1-sulfonamido)-2-phenylacetamido)-N-hydroxybenzamide]
p-Akt level (U937 cell line [1]): significantly decreased | IC50 (HL60 cells): 3660 ± 130 nM | cell permeability and intracellular HDAC inhibition (U937 cell line [2]): cell permeable and can inhibit intracellular and even nuclear HDACs | acetylated tubulin level, 24h (U937 cell line [2]): reduced | inhibitory ratio (tumor weight) (U937 xenograft): 53.57% | mean weight of tumors (U937 xenograft): 1.24 g | mice body weight loss [3]: No evidence of mice body weight (measured every two days) loss | water solubility (Water solubility): best water solubility | IC50 (U937 cells): 1240 ± 20 nM | IC50 (K562 cells): 700 ± 10 nM | IC50 (MCF7 cells): 5340 ± 220 nM | IC50 (PC3 cells): 3310 ± 160 nM

COc1ccccc1NC(=O)N[C@H](C(=O)Nc1ccc(C(=O)NO)cc1)c1ccccc1 [Compound D18, (S)-N-hydroxy-4-(2-(3-(2-methoxyphenyl)ureido)-2-phenylacetamido)benzamide]
IC50 (HL60 cells): 3830 ± 290 nM | cell permeability and intracellular HDAC inhibition (U937 cell line [2]): cell permeable and can inhibit intracellular and even nuclear HDACs | acetylated tubulin level, 24h (U937 cell line [2]): reduced | IC50 (U937 cells): 1310 ± 70 nM | IC50 (K562 cells): 1550 ± 50 nM | IC50 (MCF7 cells): 5140 ± 430 nM | IC50 (PC3 cells): 1510 ± 50 nM

O=C(CCCCCCC(=O)Nc1ccccc1)NO [SAHA, Suberoyl anilide hydroxamic acid, reference compound]
mean weight of tumors (U937 xenograft): 2.00 g | IC50 (K562 cells): 1860 ± 70 nM
